{"source": "ChEMBL document CHEMBL1201862", "about": "“PubChem BioAssay data set” (2004)", "key": {"[1]": {"tested_on": "HeLa", "experiment": "HeLa cell cytotoxicity, dose response, cytotoxicity control for MITF activator project, CellTiter-Glo luminescence, cherry-pick samples (AID 540259)", "assay_type": "functional, cell-based", "settings": "Homo sapiens"}, "[2]": {"biological_target": "Cytochrome P450 3A4 (Homo sapiens, UniProt P08684)", "sequence (P08684 whole entry)": "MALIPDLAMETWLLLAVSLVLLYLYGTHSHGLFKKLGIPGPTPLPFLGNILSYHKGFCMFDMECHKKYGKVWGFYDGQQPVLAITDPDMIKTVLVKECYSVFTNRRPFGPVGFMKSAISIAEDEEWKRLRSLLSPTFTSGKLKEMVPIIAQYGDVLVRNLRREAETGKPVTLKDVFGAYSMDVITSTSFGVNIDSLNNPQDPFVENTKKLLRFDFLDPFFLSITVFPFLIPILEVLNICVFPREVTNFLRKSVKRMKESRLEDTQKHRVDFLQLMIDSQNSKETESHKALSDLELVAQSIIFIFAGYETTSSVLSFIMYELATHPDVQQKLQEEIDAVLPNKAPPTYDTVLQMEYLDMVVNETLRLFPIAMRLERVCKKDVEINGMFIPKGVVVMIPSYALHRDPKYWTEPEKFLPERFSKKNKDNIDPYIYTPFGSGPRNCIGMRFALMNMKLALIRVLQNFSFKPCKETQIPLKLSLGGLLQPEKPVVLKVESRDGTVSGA"}, "[3]": {"biological_target": "Cytochrome P450 2C19 (Homo sapiens, UniProt P33261)", "sequence (P33261 whole entry)": "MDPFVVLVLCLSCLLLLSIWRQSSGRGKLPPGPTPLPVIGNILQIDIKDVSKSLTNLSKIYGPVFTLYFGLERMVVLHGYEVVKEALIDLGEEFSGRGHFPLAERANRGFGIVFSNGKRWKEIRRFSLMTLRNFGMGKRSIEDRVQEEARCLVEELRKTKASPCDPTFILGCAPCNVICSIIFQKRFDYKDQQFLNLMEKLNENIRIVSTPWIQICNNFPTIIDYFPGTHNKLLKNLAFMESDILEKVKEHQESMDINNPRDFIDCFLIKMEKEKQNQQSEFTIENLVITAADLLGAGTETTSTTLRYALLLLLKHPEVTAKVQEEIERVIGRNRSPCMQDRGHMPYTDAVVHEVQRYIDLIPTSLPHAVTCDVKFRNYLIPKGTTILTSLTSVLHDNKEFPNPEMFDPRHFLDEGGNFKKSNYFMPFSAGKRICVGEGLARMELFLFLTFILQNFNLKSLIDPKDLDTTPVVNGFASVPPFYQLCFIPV", "experiment": "Cytochrome panel assay with activity outcomes. Panel member name: p450-cyp2c19 Compounds with AC50 equal or less than 10 uM are considered active", "assay_type": "functional", "settings": "read-out: AC50"}, "[4]": {"biological_target": "Cytochrome P450 2C9 (Homo sapiens, UniProt P11712)", "sequence (P11712 whole entry)": "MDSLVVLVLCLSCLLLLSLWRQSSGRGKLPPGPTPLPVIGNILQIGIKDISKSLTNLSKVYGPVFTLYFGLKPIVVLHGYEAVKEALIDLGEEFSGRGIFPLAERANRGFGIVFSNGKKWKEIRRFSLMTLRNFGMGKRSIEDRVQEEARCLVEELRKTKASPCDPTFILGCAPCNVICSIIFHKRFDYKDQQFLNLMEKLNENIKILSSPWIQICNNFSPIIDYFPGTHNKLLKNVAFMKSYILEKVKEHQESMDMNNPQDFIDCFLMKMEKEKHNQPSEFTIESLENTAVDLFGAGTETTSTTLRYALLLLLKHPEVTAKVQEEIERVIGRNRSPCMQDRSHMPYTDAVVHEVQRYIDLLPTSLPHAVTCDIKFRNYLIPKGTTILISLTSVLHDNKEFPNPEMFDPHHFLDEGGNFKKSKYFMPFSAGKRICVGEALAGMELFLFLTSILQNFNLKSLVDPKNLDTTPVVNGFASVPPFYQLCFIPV"}, "[5]": {"biological_target": "T1, DNA repair and recombination protein RAD54-like (Homo sapiens, UniProt Q92698)", "T1 sequence (Q92698 whole entry)": "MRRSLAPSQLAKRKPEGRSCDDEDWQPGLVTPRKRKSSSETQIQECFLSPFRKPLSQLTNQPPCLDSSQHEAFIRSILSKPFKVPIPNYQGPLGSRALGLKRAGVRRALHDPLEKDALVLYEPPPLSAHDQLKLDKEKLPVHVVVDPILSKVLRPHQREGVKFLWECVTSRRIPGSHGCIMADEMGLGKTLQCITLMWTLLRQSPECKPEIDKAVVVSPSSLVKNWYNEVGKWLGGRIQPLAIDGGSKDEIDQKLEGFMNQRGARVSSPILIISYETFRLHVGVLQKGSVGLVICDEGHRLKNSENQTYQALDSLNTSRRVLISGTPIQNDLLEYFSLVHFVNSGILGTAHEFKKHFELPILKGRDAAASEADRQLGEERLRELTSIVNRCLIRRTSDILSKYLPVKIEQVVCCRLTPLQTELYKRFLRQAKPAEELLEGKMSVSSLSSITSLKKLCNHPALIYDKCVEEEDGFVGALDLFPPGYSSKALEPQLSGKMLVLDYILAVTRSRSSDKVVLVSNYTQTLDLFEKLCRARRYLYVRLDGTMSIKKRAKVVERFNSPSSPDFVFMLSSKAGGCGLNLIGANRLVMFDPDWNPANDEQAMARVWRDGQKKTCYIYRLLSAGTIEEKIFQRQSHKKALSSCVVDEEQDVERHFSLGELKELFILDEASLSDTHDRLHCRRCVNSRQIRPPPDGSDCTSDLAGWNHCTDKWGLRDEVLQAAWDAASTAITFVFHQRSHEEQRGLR", "experiment": "inhibitors of human RAD54 branch migration, confirmation, biochemical, fluorescence, cherry-picked samples, dose series (AID 651657)", "assay_type": "functional"}, "[6]": {"biological_target": "Cytochrome P450 2D6 (Homo sapiens, UniProt P10635)", "sequence (P10635 whole entry)": "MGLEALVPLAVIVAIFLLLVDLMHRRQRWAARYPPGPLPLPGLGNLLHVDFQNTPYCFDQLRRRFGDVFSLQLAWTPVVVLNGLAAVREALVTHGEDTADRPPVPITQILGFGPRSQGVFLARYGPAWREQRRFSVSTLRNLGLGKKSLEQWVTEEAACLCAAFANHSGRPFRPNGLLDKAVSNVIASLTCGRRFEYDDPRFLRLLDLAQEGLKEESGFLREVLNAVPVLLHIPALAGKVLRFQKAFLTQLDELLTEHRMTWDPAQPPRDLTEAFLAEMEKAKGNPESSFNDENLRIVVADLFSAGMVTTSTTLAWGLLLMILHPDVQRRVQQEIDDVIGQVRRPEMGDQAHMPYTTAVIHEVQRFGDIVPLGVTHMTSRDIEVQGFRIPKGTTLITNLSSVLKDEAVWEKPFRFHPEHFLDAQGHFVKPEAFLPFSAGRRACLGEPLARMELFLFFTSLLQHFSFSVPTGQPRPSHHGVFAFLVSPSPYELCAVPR"}, "[7]": {"biological_target": "Heat shock protein HSP 90-alpha (Homo sapiens, UniProt P07900)", "assay_type": "functional, organism-based"}, "[8]": {"biological_target": "Nonstructural protein 1 (Influenza A virus, UniProt Q194T2)", "sequence (Q194T2 whole entry)": "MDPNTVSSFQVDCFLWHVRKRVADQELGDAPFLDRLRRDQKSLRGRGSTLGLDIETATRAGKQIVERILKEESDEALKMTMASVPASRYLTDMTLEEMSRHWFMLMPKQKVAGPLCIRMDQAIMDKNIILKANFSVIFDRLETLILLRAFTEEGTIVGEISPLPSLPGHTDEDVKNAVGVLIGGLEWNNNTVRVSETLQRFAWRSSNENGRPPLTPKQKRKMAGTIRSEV", "assay_type": "functional, Influenza A virus (A/California/07/2009(H1N1))"}, "[9]": {"tested_on": "HEK293", "experiment": "inhibitors of LMP1-driven NF-kB reporter, dose response, cell-based, HEK293, luciferase, cherry-pick (AID 588343)", "assay_type": "functional", "settings": "Homo sapiens"}, "[10]": {"biological_target": "T2, Latent membrane protein 1 (Human herpesvirus 4 (strain B95-8), UniProt P03230)", "T2 sequence (P03230 whole entry)": "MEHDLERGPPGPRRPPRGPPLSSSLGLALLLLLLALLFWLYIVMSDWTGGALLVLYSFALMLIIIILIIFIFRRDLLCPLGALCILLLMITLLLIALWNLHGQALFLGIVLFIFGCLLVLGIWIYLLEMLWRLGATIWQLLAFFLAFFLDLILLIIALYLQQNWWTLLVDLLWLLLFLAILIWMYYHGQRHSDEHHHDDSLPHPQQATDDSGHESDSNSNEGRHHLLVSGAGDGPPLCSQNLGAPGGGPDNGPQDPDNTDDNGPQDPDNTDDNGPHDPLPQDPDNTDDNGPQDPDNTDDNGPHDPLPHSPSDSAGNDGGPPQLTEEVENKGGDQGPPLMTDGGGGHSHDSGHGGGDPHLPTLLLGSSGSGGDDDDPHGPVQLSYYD", "experiment": "TES1-eGFP NF-kB reporter inhibition versus Tet-On dsRED, dose response, selectivity assay for LMP1 NF-kB inhibitor project, imaging, HEK293T, dual-color eGFP/dsRED, cherry-picks (AID 588398)", "assay_type": "functional, cell-based"}, "[11]": {"biological_target": "Tumor necrosis factor (Homo sapiens, UniProt P01375)", "sequence (P01375 whole entry)": "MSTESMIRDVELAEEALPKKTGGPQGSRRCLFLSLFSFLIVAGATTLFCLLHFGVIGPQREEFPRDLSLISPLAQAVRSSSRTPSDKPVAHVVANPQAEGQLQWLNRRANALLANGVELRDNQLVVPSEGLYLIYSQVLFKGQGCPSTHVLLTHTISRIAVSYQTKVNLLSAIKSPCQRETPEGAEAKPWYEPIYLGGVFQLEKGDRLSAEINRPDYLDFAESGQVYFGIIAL", "experiment": "TNFa-triggered NF-kB activation inhibitors, SAR follow-up, cell-based, revised (AID 2337)", "assay_type": "functional"}, "[12]": {"biological_target": "Nucleotide-binding oligomerization domain-containing protein 2 (Homo sapiens, UniProt Q9HC29)", "sequence (Q9HC29 whole entry, the tested form may be a part)": "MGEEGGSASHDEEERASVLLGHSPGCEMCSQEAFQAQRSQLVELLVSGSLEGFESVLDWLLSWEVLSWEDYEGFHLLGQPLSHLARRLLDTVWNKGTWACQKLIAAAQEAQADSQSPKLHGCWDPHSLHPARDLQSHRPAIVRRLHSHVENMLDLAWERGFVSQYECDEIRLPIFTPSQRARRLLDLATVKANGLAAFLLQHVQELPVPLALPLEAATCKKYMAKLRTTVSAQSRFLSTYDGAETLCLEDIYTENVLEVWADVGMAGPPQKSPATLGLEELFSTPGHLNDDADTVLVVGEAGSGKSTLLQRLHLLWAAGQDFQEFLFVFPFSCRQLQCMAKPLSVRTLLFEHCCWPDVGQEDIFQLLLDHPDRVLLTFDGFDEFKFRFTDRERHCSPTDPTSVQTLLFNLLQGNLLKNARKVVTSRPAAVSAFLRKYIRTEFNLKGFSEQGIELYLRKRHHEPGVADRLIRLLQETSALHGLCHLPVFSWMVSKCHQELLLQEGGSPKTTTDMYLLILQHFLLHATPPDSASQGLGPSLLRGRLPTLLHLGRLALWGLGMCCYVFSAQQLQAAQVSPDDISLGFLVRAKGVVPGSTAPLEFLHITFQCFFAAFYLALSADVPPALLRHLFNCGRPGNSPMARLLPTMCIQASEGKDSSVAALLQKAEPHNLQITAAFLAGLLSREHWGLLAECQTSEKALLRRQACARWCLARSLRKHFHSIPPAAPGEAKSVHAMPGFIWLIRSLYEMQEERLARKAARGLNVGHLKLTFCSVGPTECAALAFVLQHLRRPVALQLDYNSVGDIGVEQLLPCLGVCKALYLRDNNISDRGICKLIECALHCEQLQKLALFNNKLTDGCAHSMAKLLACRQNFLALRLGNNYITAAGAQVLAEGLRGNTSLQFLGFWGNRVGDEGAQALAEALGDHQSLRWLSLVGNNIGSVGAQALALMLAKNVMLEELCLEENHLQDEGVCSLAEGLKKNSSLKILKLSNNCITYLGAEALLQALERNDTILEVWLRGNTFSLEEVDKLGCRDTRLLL", "experiment": "PubChem AID 2334", "assay_type": "functional"}, "[13]": {"tested_on": "HEK293", "experiment": "cells", "settings": "Homo sapiens"}, "[14]": {"biological_target": "T3, Nucleotide-binding oligomerization domain-containing protein 1 (Homo sapiens, UniProt Q9Y239)", "T3 sequence (Q9Y239 whole entry)": "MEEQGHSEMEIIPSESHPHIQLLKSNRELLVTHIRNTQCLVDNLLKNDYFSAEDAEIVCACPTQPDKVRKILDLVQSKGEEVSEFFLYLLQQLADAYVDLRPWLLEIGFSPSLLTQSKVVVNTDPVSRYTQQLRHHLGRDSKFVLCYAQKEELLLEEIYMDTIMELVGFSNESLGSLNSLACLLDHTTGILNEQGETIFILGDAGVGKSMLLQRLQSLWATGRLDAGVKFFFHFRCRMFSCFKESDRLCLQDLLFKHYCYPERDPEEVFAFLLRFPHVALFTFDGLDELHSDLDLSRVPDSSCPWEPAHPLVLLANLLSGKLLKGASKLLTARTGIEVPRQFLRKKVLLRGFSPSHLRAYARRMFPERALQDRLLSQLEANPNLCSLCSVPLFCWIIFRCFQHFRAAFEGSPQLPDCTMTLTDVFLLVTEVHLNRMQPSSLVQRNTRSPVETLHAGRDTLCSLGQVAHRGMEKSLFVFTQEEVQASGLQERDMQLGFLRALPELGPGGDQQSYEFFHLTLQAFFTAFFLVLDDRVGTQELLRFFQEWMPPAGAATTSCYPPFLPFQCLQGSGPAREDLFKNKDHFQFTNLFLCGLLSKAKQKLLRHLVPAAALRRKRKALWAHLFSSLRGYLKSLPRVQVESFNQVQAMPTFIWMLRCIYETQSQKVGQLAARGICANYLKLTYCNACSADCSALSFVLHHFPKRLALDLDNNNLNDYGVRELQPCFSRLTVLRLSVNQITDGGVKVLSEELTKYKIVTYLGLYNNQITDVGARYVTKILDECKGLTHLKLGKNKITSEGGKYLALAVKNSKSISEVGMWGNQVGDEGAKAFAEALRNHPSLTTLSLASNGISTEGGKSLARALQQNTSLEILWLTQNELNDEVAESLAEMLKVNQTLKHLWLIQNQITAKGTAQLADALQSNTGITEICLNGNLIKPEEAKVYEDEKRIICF", "experiment": "NOD1 signaling inhibitors, SAR follow-up, revised (AID 2333)", "assay_type": "functional"}, "[15]": {"biological_target": "T4, Carboxy-terminal domain RNA polymerase II polypeptide A small phosphatase 1 (Homo sapiens, UniProt Q9GZU7)", "T4 sequence (Q9GZU7 whole entry)": "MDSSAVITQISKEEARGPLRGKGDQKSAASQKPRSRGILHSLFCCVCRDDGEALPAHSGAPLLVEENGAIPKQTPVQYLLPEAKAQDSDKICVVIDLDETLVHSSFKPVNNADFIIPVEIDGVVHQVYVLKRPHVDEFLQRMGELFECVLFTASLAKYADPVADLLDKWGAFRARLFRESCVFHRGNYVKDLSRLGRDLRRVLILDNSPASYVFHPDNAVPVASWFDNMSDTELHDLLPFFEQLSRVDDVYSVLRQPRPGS", "experiment": "inhibitors of CTDSP1, concentration-response testing, biochemical assay, absorbance-based, actives from ultra-high-throughput screening (AID 540297)", "assay_type": "functional"}}, "note": "Calls of active or inactive are those of the source."}
{"smiles": "c1ccc2c(-c3csc(-c4ccncc4)n3)c[nH]c2c1", "values": [{"measurement": "AC50", "setting": "[1]", "result": "40.5 µM (active)"}]}
{"smiles": "CCN1CCc2c(sc(NC(=O)c3ccc(S(=O)(=O)N4CCOCC4)cc3)c2C(=O)OC)C1.Cl", "values": [{"measurement": "AC50", "setting": "[2]", "result": "inconclusive"}, {"measurement": "AC50", "setting": "[3]", "result": "31.6 µM (inconclusive)"}, {"measurement": "AC50", "setting": "[4]", "result": "5.01 µM (inconclusive)"}, {"measurement": "AC50", "setting": "[5]", "result": "12.8 µM (active)"}, {"measurement": "AC50", "setting": "[6]", "result": "inconclusive"}]}
{"smiles": "CC(=NNC(=S)N1CCCCCC1)c1ccccn1", "values": [{"measurement": "AC50", "setting": "[7]", "result": "3.49 µM (active)"}, {"measurement": "IC50", "setting": "[8]", "result": "3 µM (active)"}, {"measurement": "AC50", "setting": "[9]", "result": "0.545 µM (active)"}, {"measurement": "AC50", "setting": "[10]", "result": "4.98 µM (active)"}]}
{"smiles": "CC(=O)Nc1nc2ccccc2n1Cc1ccccc1", "values": [{"measurement": "AC50", "setting": "[4]", "result": "35.5 µM (inconclusive)"}, {"measurement": "IC50", "setting": "[11]", "result": "> 20 µM (inactive)"}, {"measurement": "IC50", "setting": "[12]", "result": "> 20 µM (inactive)"}, {"measurement": "IC50", "setting": "[13]", "result": "> 20 µM (inactive)"}, {"measurement": "IC50", "setting": "[14]", "result": "> 20 µM (inactive)"}]}
{"smiles": "Cc1cc(C)c(S(=O)(=O)N2CCN(C(=O)c3ccccc3OCc3c(C)noc3C)CC2)c(C)c1", "values": [{"measurement": "AC50", "setting": "[10]", "result": "91.5 µM (active)"}]}
{"smiles": "COc1ccccc1-n1cnc2c(c1=O)c1nc3ccccc3nc1n2-c1ccc(C)cc1", "values": [{"measurement": "IC50", "setting": "[15]", "result": "8.78 µM (active)"}]}
{"smiles": "Cc1ccc(OCCn2cc(C(=S)N3CCCC3)c3ccccc32)cc1C", "values": [{"measurement": "AC50", "setting": "[10]", "result": "72.9 µM (active)"}]}
{"smiles": "Cc1nonc1C(=O)NN=Cc1ccc([N+](=O)[O-])o1", "values": [{"measurement": "IC50", "setting": "[11]", "result": "> 20 µM (inactive)"}, {"measurement": "IC50", "setting": "[12]", "result": "19.7 µM (active)"}, {"measurement": "IC50", "setting": "[13]", "result": "> 20 µM (inactive)"}, {"measurement": "IC50", "setting": "[14]", "result": "16.4 µM (active)"}]}
